Key:
Assay type in all cases: in vivo, human
[1] = system: patients with idiopathic hypohidrosis; test: Long term retrospective assessment of 28 patients with idiopathic hypohidrosis, 20 treated with retinoids
Description: A retrospective analysis on patients with isolated hypohidrosis who attended a neuro-dermatology clinic over a 5.75-year period was conducted. All patients routinely underwent standardized exercising and whole-body starch-iodine test, followed by non-invasive HD-OCT skin imaging, and their treatment history was analysed.
28 patients with idiopathic hypohidrosis were included in the study, 14 of whom were affected in a generalised manner (with 70% and more of body surface affected) and 14 in a partial manner. 14 of the 28 patients were those which were the subject of Example 1, and 14 patients were new.

[2] = system: patients with idiopathic hypohidrosis; test: Treatment of fourteen patients with idiopathic hypohidrosis with oral retinoids (exercise, starch-iodine sweat test, HD-OCT); settings: for patients who responded and were successfully treated: generalised hypohidrosis, three with acitretin (one did not respond)
Description: Fourteen patients presenting with idiopathic hypohidrosis underwent monitored exercising on a stationary bicycle for 20 minutes. Their temperature and heart rate were repeatedly measured during the exercise. Subsequently, using a spray gun, starch-iodine powder was sprayed onto the whole body of the patient and the powder coats onto the skin (FIG. 1). The coat of powder on body areas with sweating turned purple, while the powder in areas without sweat remained brown (FIG. 2). This allows the body surface area of anhidrosis to be assessed. Thereafter, the patient rinsed off the powder, which washed off easily with water.
The patients' skin was subsequently imaged using high-definition optical coherence tomography (HD-OCT) non-invasive skin imaging (Skintell, Agfa, Belgium). HD-OCT uses an infrared (1000-1700 nm), interferometric and time-domain imaging technique. Instead of a single pin diode light detector, it uses a two-dimensional imaging array to allow for simultaneous cross-sectional and en face images acquisition. A high lateral resolution of 3 μm is ensured using a technique called continuous focus tracking. The capture of a 3D image (containing 57 million voxels) takes 2-3 seconds and the information acquired can subsequently be digitally analysed.
The fourteen patients suffering from idiopathic hypohidrosis were offered treatment according to the invention.
All of the treated patients were started on an oral dose of isotretinoin or acitretin of between 5 and 20 mg once daily for at least six weeks. If necessary, this dose was adjusted, whether increased because the initial dose was ineffective, or decreased to reduce the expected side effects associated with oral retinoids. All patients responded to a dose of between 10 and 30 mg once daily. This dose was further adjusted as required until symptoms of idiopathic hypohidrosis had resolved. Administration of retinoids was continued to prevent reoccurrence of symptoms.

[3] = system: sweat apparatus (glands or ducts) of patients with idiopathic hypohidrosis; test: Injection of Carbachol to locate the pathology in idiopathic hypohidrosis (induction of sweating)
[4] = five treated with isotretinoin, oral once daily
[5] = one patient successfully treated with isotretinoin

SMILES | patients recovered well enough to return to their pre-morbid sporting activities ([1]; seventeen patients (7 generalised and 10 partial), oral) | patients who responded and were successfully treated [2, 4] | HD-OCT imaging of lesions after treatment [2, 5] | sweat test after treatment [2, 5] | patients who responded to treatment and were successfully treated ([2]; partial hypohidrosis, five treated with isotretinoin, oral once daily) | induction of sweating ([3]; injection at regions where patients could sweat) | induction of sweating ([3]; injection in areas where patients cannot sweat) | patients recovered ([1]; of three patients treated, one did not respond)
CC1=C(/C=C/C(C)=C/C=C/C(C)=C\C(=O)O)C(C)(C)CCC1 [isotretinoin, 13-cis-retinoic acid] | 100% | All five | no longer visible | normalised extent of sweating | All five | – | – | –
C[N+](C)(C)CCOC(N)=O [Carbachol] | – | – | – | – | – | induced sweating | could not do so | –
COc1cc(C)c(/C=C/C(C)=C/C=C/C(C)=C/C(=O)O)c(C)c1C [acitretin] | – | Two of the three | – | – | – | – | – | 2 patients

From patent US12514840B2, “Treatment of idiopathic hypohidrosis” (NATIONAL SKIN CENTRE (SINGAPORE) PTE LTD, priority 2019, dated 2026)
